According to patent US20080045534A1, “Derivatives of 1,3-diamino benzene as potassium channel modulators” (Valeant Pharmaceuticals North America, priority 2006, published 2008):

biological target: T1, KCNQ 2/3 (Rattus norvegicus, UniProt O88943+O88944); experiment: rubidium (Rb+) efflux assay in NGF-differentiated PC-12 cells; type: cell-based; conditions: concentration for 50% of maximal Rb+ efflux, depolarization buffer (15 mM KCl), 10 min at room temperature
T1 construct: endogenous in cells; host or cells: PC-12 cells differentiated with NGF-7s
Method: Compounds of this invention formula were evaluated as KCNQ 2/3 modulators by measuring rhubidium release in the following assay.
Methods: PC-12 cells were grown at 37° C. and 5% CO2 in DMEM/F12 Medium supplemented with 10% horse serum, 5% fetal bovine serum, 2 mM glutamine, 100 U/ml penicillin, 100 U/ml streptomycin. They were plated in poly-D-lysine-coated 96-well cell culture microplates at a density of 40,000 cells/well and differentiated with 100 ng/ml NGF-7s for 2-5 days. For the assay, the medium was aspirated and the cells were washed once with 0.2 ml in wash buffer (25 mM Hepes, pH 7.4, 150 mM NaCl, 1 mM MgCl2, 0.8 mM NaH2PO4, 2 mM CaCl2). The cells were then loaded with 0.2 ml Rb^+ loading buffer (wash buffer plus 5.4 mM […], 5 mM glucose) and incubated at 37° C. for 2 h. Attached cells were quickly washed three times with buffer (same as Rb^+ loading buffer, but containing 5.4 mM KCl instead of RbCl) to remove extracellular Rb^+. Immediately following the wash, 0.2 ml of depolarization buffer (wash buffer plus 15 mM KCl) with or without compounds was added to the cells to activate efflux of potassium ion channels. After incubation for 10 min at room temperature, the supernatant was carefully removed and collected. Cells were lysed by the addition of 0.2 ml of lysis buffer (depolarization buffer plus 0.1% Triton X-100) and the cell lysates were also collected. If collected samples were not immediately analyzed for Rb^+ contents by atomic absorption spectroscopy (see below), they were stored at 4° C. without any negative effects on subsequent Rb^+ analysis.
The concentration of Rb^+ in the supernatants (Rb^+Sup) and cell lysates (Rb^+Lys) was quantified using an ICR8000 flame atomic absorption spectrometer (Aurora Biomed Inc., Vancouver, B.C.) under conditions defined by the manufacturer. One 0.05 ml samples were processed automatically from microtiter plates by dilution with an equal volume of Rb^+ sample analysis buffer and injection into an air-acetylene flame. The amount of Rb^+ in the sample was measured by absorption at 780 nm using a hollow cathode lamp as light source and a PMT detector. A calibration curve covering the range 0-5 mg/L Rb^+ in sample analysis buffer was generated with each set of plates. The percent Rb^+ efflux (F) was defined by
F=[Rb^+Sup/(Rb^+Sup+Rb^+Lys)]×100%.
The effect (E) of a compound was defined by:
where the Fc is the efflux in the presence of compound in depolarization buffer, Fb is the efflux in basal buffer, and Fs is the efflux in depolarization buffer, and. The effect (E) and compound concentration relationship was plotted to calculate an EC50 value, a compound's concentration for 50% of maximal Rb^+ efflux. Legend: A: EC50<50 nM; B: EC50=50 nM-200 nM; C: EC50=200 nM-1.0 μM; D: EC50=1.0 μM-10 μM; E: EC50>10 μM

| SMILES | EC50 |
| --- | --- |
| Cc1c(N2CCOCC2)ccc(F)c1NC(=O)CC(C)(C)C | 1000 to 10000 nM |
| Cc1ccc(N2CCOCC2)cc1NC(=O)CC(C)(C)C | > 10000 nM |
| Cc1cc(Cl)c(N2CCOCC2)cc1NC(=O)CC(C)(C)C | 1000 to 10000 nM |
| Cc1ccc(NCc2ccc(C(F)(F)F)cc2)c(C)c1NC(=O)CC(C)(C)C | 200 to 1000 nM |
| Cc1ccc(N2CCOCC2)c(C)c1NC(=O)CC(C)(C)C | 1000 to 10000 nM |
| CC(C)(C)CC(=O)Nc1ccc(F)c(N2CCOCC2)c1 | > 10000 nM |
| COc1ccc(N2CCOCC2)c(C)c1NC(=O)CC(C)(C)C | 1000 to 10000 nM |
| CC(C)(C)CC(=O)Nc1cc(N2CCOCC2)c(F)cc1F | 1000 to 10000 nM |
| Cc1c(NC(=O)CC(C)(C)C)cccc1N1CCOCC1 | > 10000 nM |
| Cc1ccc(N2CCc3ccccc3C2)cc1NC(=O)CC(C)(C)C | 200 to 1000 nM |
| Cc1ccc(NC(=O)CC(C)(C)C)cc1N1CCOCC1 | 1000 to 10000 nM |
| Cc1ccc(NCc2ccc(F)cc2)cc1NC(=O)CC(C)(C)C | 200 to 1000 nM |

Second part, the compound after the results:

| EC50 | SMILES |
| --- | --- |
| 50 to 200 nM | COc1ccc(NCc2ccc(F)cc2)c(C)c1NC(=O)CCC1CCCC1 |
| < 50 nM | Cc1ccc(NCc2ccc(C(F)(F)F)cc2)c(C)c1NC(=O)CCC1CCCC1 |
| < 50 nM | Cc1ccc(NCc2ccc(F)cc2)c(C)c1NC(=O)CCC1CCCC1 |
| < 50 nM | CCc1ccc(NCc2ccc(F)cc2)c(CC)c1NC(=O)CCC1CCCC1 |
| 50 to 200 nM | CCc1ccc(NCc2ccc(F)cc2)c(C)c1NC(=O)CC(C)(C)C |
| 50 to 200 nM | Cc1ccc(NCc2ccc(F)cc2)c(Cl)c1NC(=O)CC(C)(C)C |
| 50 to 200 nM | CCc1c(NCc2ccc(F)cc2)ccc(C)c1NC(=O)CC(C)(C)C |
| 50 to 200 nM | Cc1ccc(NCc2ccc(F)cc2)c(C)c1NC(=O)CC(C)(C)C |
| 50 to 200 nM | Cc1c(NCc2ccc(F)cc2)cccc1NC(=O)CC(C)(C)C |
